Data on 3 molecules can be found in patent publication US20160058753A1, “Nalmefene for Treatment of Patients with Mood Disorder” (H. LUNDBECK A/S, priority 2013, published 2016).

Each structure is given as a SMILES string.

The test system of test [1] is patients with comorbid bipolar disorders. The settings on record: literature; cited from earlier work.
The target in the next test is μ receptor (Homo sapiens, UniProt P35372). The settings on record: in vitro; cited from earlier work.
The target of a further test is δ receptor (Homo sapiens, UniProt P41143). The settings on record: in vitro; cited from earlier work.
The test system of test [2] is patients with alcohol dependence. Kind of test: Study 12013A: clinical efficacy measured by POMS score. The settings on record: for POMS TMD score: patients with a mood disorder at baseline according to MINI assessment. In kind it is in vivo, human. From the text:
The term “POMS” is an abbreviation of “profile of mood states” and refers to a selfreport inventory scale developed to assess the effect of e.g. new medication on mood states and mood changes. The scale measures six domains: Tension-Anxiety, Depression-Rejection, Anger-Hostility, Vigour-Activity, Fatigue-Inertia, and Confusion-Bewilderment. A total mood disturbance (TMD) score can be calculated. In general, a lower POMS score indicates a better mood state than a higher score except for vigour-activity, for which a higher POMS score indicates a better mood state. The scale has been described e.g. by McNair et al., Profile of mood states. San Diego, Calif.: Educational and Industrial Testing Service and by Nyenhios and Yamamoto, J. Clin. Psychology, (1999), Vol. 55(1): 79-86.
(§1) The diagnosis of alcohol dependence was based on the DSM-IV-TR criteria. For this purpose, the investigator interviewed the patient in a structured way by using the Mini International Neuropsychiatric Interview (MINI) standardized interview (Lecrubier et al. The Mini International Neuropsychiatric Interview (M.I.N.I.). A short diagnostic structured interview: Reliability and validity according to the CIDI. European Psychiat. (1997), 12: 224-31). The M.I.N.I. is designed as a brief structured interview for the major Axis I psychiatric disorders in DSM-IV. Its use permits a standardised assessment of the diagnostic criteria. The M.I.N.I. interview was used at the screening visit. Clinicians used it after a training session. The M.I.N.I. approach was used to select patients with a mood disorder at baseline in Example 3.
(§2) Another approach to identify patients with a mood disorder is by defining mood disorder at baseline as any ongoing medical history coded by the Medical Dictionary for Regulatory Activities (MedDRA) Preferred Term as ‘Affective Disorder’, ‘Bipolar Disorder’, ‘Depressed Mood’, ‘Depression’, ‘Dysthymic Disorder’, ‘Hypomania’, ‘Major Depression’, ‘Mood Disorder Due To A General Medical Condition’ and/or ‘Seasonal Affective Disorder’. In examples 1 and 2 below patients classified with a mood disorder at baseline was selected based on said MedDRA terms.
Assessment of POMs scores in Study 12013A was used to evaluate the effect of nalmefene on mood states and mood changes throughout the study. The change in POMS scores from baseline are illustrated in FIGS. 3-9.
In general, a lower POMS score indicates a better mood state than a higher score except for vigour, illustrated in FIGS. 7a and 7b, wherein a higher POMS score indicates a better mood state.
(§3) Table 10 below outlines drinking variables and POMS TMD score patients from the 12013A study with a mood disorder at baseline who were classified based on MINI standardized interviews.

The target of another test is κ receptor (Homo sapiens, UniProt P41145). The settings on record: in vitro; cited from earlier work.
Test [3] has as its system Mice (NMRI). Kind of test: Forced swim test in mouse. The format is in vivo. The settings on record: for Duration of immobility, Mean ± SEM: last 4 of 6 minutes. As to the method:
The method, which detects antidepressant activity, follows that described by Porsolt et al (Arch. Int. Pharmacodyn., 229, 327-336, 1977). Mice forced to swim in a situation from which they cannot escape eventually become immobile. Antidepressants decrease the duration of immobility.
Nalmefene was tested as the sole active compound. Mice (NMRI) were individually placed in a cylinder (height=24 em; diameter=13 em) containing 10 cm water (22° C.) from which they cannot escape. The mice were placed in the water for 6 minutes and the duration of immobility during the last 4 minutes was measured. The latency to the first bout of immobility was also recorded starting from the beginning of the test.
10 mice were studied per group. The test was performed blind. Each test substance was evaluated at 3 doses (0.1, 1 and 10 mg/kg), administered s.c. 30 minutes before the test, and compared with a vehicle control group.
Imipramine (32 mg/kg s.c.), administered under the same experimental conditions, was used as reference substance. The experiment therefore included 8 groups.
Data with the test substance were analysed by comparing treated groups with vehicle control using one-way ANOVA followed by post-hoc Dunnett's tests. Data with the reference substance were analysed using unpaired Student's t tests. Due to the number of groups, the study was conducted over 2 separate sub-experiments, each subexperiment including 5 mice per group.

Test [4] relates to Mice (NMRI). The test is described as follows: Marble burying test in mouse. The settings on record: for Number of marbles covered by sawdust, Mean ± SEM: 30 minute test, 25 marbles. In kind it is in vivo. From the text: The method, which detects anxiolytic/tranquillizing activity, follows that described by Broekkamp et al (Eur. J. Pharmacol., 126, 223-229, 1986). Mice exposed to novel objects (marbles) will bury them in the sawdust floor covering. Anxiolytics decrease the number of marbles buried at non-sedative doses.
Mice (NMRI) were individually placed in transparent plastic cages (33×21×18 cm) with 5 cm of sawdust on the floor and 25 marbles grouped in the centre of the cage. The cage was covered with an inverted plastic cage. Each test cage, together with the marbles, was impregnated with mouse odor before-hand by leaving 10 mice in the cage for 15 minutes. These mice then played no further role in the experiment.
Nalmefene was tested in the marble burying model as the sole active compound. The number of marbles covered by sawdust (⅔ or more) was counted at the end of a 30 minute test. 12 mice were studied per group. The test was performed blind. Nalmefene was evaluated at 3 doses (0.01, 0.1 and 1 mg/kg), administered s.c. 30 minutes before the test, and compared with a vehicle control group. Clobazam (8 mg/kg s.c.), administered under the same experimental conditions, was used as reference substance. The experiment therefore included 8 groups.
Data with Nalmefene were analysed by comparing treated groups with vehicle control using Kruskall-Wallis test followed by Mann-Whitney U tests. Data with the reference substance were analysed using Mann-Whitney U tests. Due to the number of groups, the study was conducted over 2 separate sub-experiments, each sub-experiment including 6 mice per group.

In test [5] the test system is patients with alcohol dependence. The test is described as follows: Study 12013A: clinical efficacy on the reduction of alcohol consumption (HDD, TAC). The settings on record: for HDD / TAC: patients with a mood disorder at baseline according to MINI assessment. In kind it is in vivo, human.
From the text: as §1, §2
The efficacy of nalmefene on the reduction of alcohol consumption in patients with alcohol dependence (DSM-IV) was evaluated in a multi-national, multi-site, randomised, double blind, two parallel group, placebo controlled 1 year safety study (Study 12013A). The efficacy was evaluated over 24 weeks of treatment. The study included outpatients, aged ≧18 years, with a primary diagnosis of alcohol dependence. […] Patients with psychiatric co-morbidity (that is, patients who used stable doses of antipsychotics and/or certain antidepressants) were also included unless the treatment of the psychiatric comorbidity had to take priority over treatment of the drinking problem, or was likely to interfere with study treatment or impairs treatment compliance.
The study included 639 patients, 482 of whom were treated with nalmefene 18 mg in an as-needed dosing regimen. A motivational and adherence enhancing intervention was administered to all the patients to support the patients in changing their behavior and to enhance adherence to treatment.
The efficacy of nalmefene on the reduction of alcohol consumption was measured using two co-primary endpoints: the change from baseline to Month 6 in the monthly number of heavy drinking days (HDDs) and the change from baseline to Month 6 in the average daily total alcohol consumption (TAC). A HDD was defined as a day with a consumption ≧60 g alcohol for men and ≧40 g for women.
as §3

The test system of a further test is Rats (Wistar). Kind of test: Forced swim test in rats. In kind it is in vivo, rat. The settings on record: 0.01, 0.1 and 1 mg/kg s.c. 30 minutes before the test, versus vehicle. As to the method:
The method, which detects antidepressant activity, follows that described by Porsolt et al (Eur. J. Pharmacol., 47, 379-391, 1978). Rats forced to swim in a situation from which they cannot escape eventually become immobile. Antidepressants decrease the duration of immobility.
Nalmefene was tested as the sole active compound. Rats (Wistar) were individually placed in a cylinder (height=40 cm; diameter=20 cm) containing 13 cm water (25° C.) for 15 minutes on the first day of the experiment (Session 1) and were then placed back in the water 24 hours later for a 5 minute test (Session 2). The duration of immobility during the 5 minute test was measured. 6 rats were studied per group. The test was performed blind. Nalmefene was evaluated at 3 doses (0.01, 0.1 and 1 mg/kg), administered s.c. 30 minutes before the test, and compared with a vehicle control group.
Data with the test substance were analysed by comparing treated groups with vehicle control using one-way ANOVA followed by post-hoc Dunnett's tests. Data with the reference substance were analysed using unpaired Student's t tests.

The mark [6] stands for this setting: 1 year, nalmefene 18 mg as-needed.
Setting [7] is: 0.1 mg/kg s.c. 30 minutes before the test.
Where [8] appears, read: 1 mg/kg s.c. 30 minutes before the test.
Where [9] appears, read: 10 mg/kg s.c. 30 minutes before the test.
Where [10] appears, read: 0.01 mg/kg s.c. 30 minutes before the test.

Chain of δ receptor (P41143 whole entry): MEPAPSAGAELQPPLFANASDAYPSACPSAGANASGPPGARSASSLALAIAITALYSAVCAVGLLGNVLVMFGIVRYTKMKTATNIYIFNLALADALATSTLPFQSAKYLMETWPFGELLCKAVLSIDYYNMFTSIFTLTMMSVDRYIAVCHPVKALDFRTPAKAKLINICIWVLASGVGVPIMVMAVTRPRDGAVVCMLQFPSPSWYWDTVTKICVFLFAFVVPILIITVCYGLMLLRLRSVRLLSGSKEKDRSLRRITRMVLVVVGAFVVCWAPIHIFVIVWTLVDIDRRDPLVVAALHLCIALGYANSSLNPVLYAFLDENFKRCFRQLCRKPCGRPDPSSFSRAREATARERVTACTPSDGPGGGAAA
Chain of μ receptor (P35372 whole entry): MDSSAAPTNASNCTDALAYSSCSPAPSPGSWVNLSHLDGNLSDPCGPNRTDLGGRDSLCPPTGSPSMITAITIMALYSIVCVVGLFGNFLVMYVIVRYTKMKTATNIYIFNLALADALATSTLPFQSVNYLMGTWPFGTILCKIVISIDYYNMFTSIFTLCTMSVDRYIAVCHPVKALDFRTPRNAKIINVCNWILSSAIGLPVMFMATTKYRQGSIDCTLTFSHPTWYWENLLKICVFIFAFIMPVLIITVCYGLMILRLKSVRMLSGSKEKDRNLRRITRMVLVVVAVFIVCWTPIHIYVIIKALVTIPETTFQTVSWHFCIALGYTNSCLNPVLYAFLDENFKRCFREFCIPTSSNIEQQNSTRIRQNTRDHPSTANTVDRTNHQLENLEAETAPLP
Chain of κ receptor (P41145 whole entry): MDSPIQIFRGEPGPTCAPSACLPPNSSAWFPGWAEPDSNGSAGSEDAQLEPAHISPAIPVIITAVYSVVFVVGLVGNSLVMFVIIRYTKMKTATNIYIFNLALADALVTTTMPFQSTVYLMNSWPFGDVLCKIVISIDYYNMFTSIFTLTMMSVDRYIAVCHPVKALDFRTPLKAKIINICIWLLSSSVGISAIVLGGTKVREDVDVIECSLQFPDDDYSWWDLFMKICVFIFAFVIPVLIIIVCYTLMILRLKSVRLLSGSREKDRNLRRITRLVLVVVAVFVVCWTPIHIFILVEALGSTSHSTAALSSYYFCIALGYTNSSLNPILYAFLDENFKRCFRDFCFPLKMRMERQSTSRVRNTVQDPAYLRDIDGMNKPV

Regarding `O=C1CCc2ccc(OCCCCN3CCN(c4cccc(Cl)c4Cl)CC3)cc2N1` [aripiprazole], in test [1], the “efficacy on measures of alcohol use and dependence” value is recorded as “ineffective”.

As to `OCCOCCN1CCN(C2=Nc3ccccc3Sc3ccccc32)CC1` [quetiapine], the “efficacy on measures of alcohol use and dependence” value in test [1] was “ineffective”.

In the case of `C=C1CC[C@@]2(O)[C@H]3Cc4ccc(O)c5c4[C@@]2(CCN3CC2CC2)[C@H]1O5` [Nalmefene, 17-(cyclopropylmethyl)-4,5-alpha-epoxy-6-methylenemorphinan-3,14-diol], on μ receptor, the “activity at the μ receptor” value is “antagonist activity”. Further, the “activity at the δ receptor” value on δ receptor is on record as “antagonist activity”. Moreover, the “POMS TMD score” value in test [2] (setting [6]) came out at 37; in test [2] (Baseline, N=22), 68. Also, the “general mood state (POMS data overall)” value in [2] (patients with a mood disorder) was “general mood state improves”. Further, the “POMS score at the end of the study versus placebo” value in test [2] (patients with a mood disorder at baseline, FIGS. 3b-9b) is on record as “better POMS score”. In addition, in test [2] (patients with a mood disorder at baseline, weeks 16-24, FIGS. 3b, 4b, 5b, 6b, 9b), the “POMS scores versus placebo: total mood disturbance, tension-anxiety, depression-rejection, anger-hostility and confusion” value is given as “better POMS scores”. In addition, in [2] (patients without a mood disorder at baseline, FIGS. 3a-9a), the “pattern in POMS score versus placebo” value was “no pronounced difference between nalmefene and placebo”. For the same molecule, the “activity at the κ receptor” value on κ receptor is recorded as “partial agonist activity”. The “Duration of immobility, % compared with vehicle” value is “+6%” in the test on Mice (NMRI) [3] (setting [7]); −28% in the test with Mice (NMRI) [3] (1 mg/kg s.c. 30 minutes before the test, p<0.05); −3% with Mice (NMRI) [3] (setting [9]). Also, the “Duration of immobility, Mean ± SEM” value with Mice (NMRI) [3] (setting [7]) turned out to be 206 ± 7 s; in the test on Mice (NMRI) [3] (setting [8]), 140 ± 22 s; in the test with Mice (NMRI) [3] (setting [9]) it was 189 ± 11 s. The latency to immobility entry in the test on Mice (NMRI) [3] (1 mg/kg s.c. 30 minutes before the test, versus vehicle) is “did not significantly affect”. For the same molecule, the “effect in forced swim test” value in the test on Mice (NMRI) [3] (0.1 or 10 mg/kg s.c.) was “no effects”. The “Number of marbles covered by sawdust, % compared with vehicle” value is reported as −5% in the test with Mice (NMRI) [4] (setting [10]); −13% with Mice (NMRI) [4] (0.1 mg/kg s.c. 30 minutes before the test, p<0.01); −13% in the test on Mice (NMRI) [4] (0.1 mg/kg s.c. 30 minutes before the test, p<0.01, listed as nalmefene); −10% with Mice (NMRI) [4] (setting [8]). Moreover, the results for the “Number of marbles covered by sawdust, Mean ± SEM” value with Mice (NMRI) [4] (setting [10]), in the test with Mice (NMRI) [4] (setting [7]) and in the test on Mice (NMRI) [4] (setting [8]) were 23.5 ± 1.2, 21.5 ± 1.2 and 22.4 ± 1.4, respectively. For the same molecule, the “effect on number of marbles covered by sawdust” value in the test on Mice (NMRI) [4] (0.01 or 1 mg/kg s.c.) was “no significant effects”. In addition, the HDD in test [5] (setting [6]) was 6.0; in [5] (Baseline, N=22) it was 16.0. In addition, the TAC in [5] (setting [6]) was found to be 20.8 g/day; in test [5] (Baseline, N=22), 80.3 g/day. The alcohol consumption entry in [5] (patients with a mood disorder at baseline (MedDRA)) is recorded as “significally reduced the alcohol consumption”. Besides, in test [5] (patients with a mood disorder at baseline compared with patients without, week 24, FIG. 1), the “difference between nalmefene and placebo in HDDs” value is given as “more pronounced”. The “difference between nalmefene and placebo in TAC” value in [5] (patients with a mood disorder at baseline compared with patients without, week 24, FIG. 2) is reported as “more pronounced”. Further, the “reducing TAC versus placebo” value in test [5] (total patient group) is reported as “superior to placebo”. Besides, the “reducing the number of HDDs versus placebo” value in [5] (total patient group) is on record as “superior to placebo”. For the same molecule, the “duration of immobility during the 5 minute test” value in the test with Rats (Wistar) is reported as “No significant effect”.
